One data set has as its system glucokinase. The following applies: randomized, double-blind and placebo-controlled study; cited from earlier work. From the text: As mentioned above, ATP-dependent GK converts glucose to glucose-6-phosphate, the critical step in glucose metabolism. Alternative splicing of the GK gene results in three tissue-specific isoforms, isoform 1 (pancreas) and isoforms 2 and 3 (liver). The only difference among three GK isoforms is in the amino acid sequence of exon 1 in the first fifteen amino acids of human pancreatic glucokinase. Unlike other hexokinases, GK is not regulated by feedback inhibition by glucose-6-phosphate. Therefore, GK can constitutively trigger insulin secretion in pancreatic β-cells under high glucose cond ...

Data set [1] concerns recombinant human pancreatic glucokinase. Description: Catalytic activity of recombinant human pancreatic glucokinase (G6PDH coupled assay). The class given is biochemical. On the set-up: catalytic activity: unit not given beside the values. The conditions noted are these: for catalytic activity: source data sheet Fig 5c; for Vmax / Km: steady-state kinetics at 37 °C, Michaelis-Menten fit; for Vmax: glucose 0–50 mM; for Km: substrate glucose 0–50 mM. As for the experimental part: For in vitro citrullination, 0.1U of rabbit peptidylarginine deiminase (PADI2; Sigma–Aldrich) were added to 50 µg of recombinant human pancreatic glucokinase (rhGK; LS-G3456, LSBio) in reaction buffer (0.1 M Tris-HCl, 10 mM CaCl2 and 5 mM DTT) at 37 °C for 2.5 hrs and kept at -80 °C in multiple aliquots to avoid freeze and thaw until used. Minimum 6 µg of rhGK and PAD-treated-rhGK were reduced, alkylated and tryptic digested for LS-MS/MS analysis. Data were collected on a QE-Plus mass spectrometer coupled to a NanoACQUITY UPLC (Waters Inc.). A Waters Symmetry® C18 180 μm × 20 mm trap column and a 1.7-μm, 75 μm × 250 mm nanoACQUITY UPLC column (35 °C) was utilized for the separation. Collected LC–MS/MS data were processed using Proteome Discoverer Software (v. 2.2, Thermo Fisher Scientific) and searched were carried out in MASCOT Search Engine (Matrix Science) using the below parameters; oxidation (M), deamidated (N/Q) and citrullination (R) as the variable modifications and carbamidomethylation (C) as a fixed modification. Mascot results were loaded into Scaffold Q + S 4.11.0 and then Scaffold PTM 3.3.0 was used to re-analyze MS/MS spectra identified as citrulline modified peptides. Calculated Ascore values for citrullinated peptides containing the neutral loss of isocyanic acid (−43 Da)[54] indicate the level of site localization probabilities to assess the level of confidence in each citrullination PTM localization. Scaffold PTM then combines localization probabilities for all peptides containing each identified PTM site to obtain the best estimated probability that a PTM is present at that particular site. Manual MS/MS inspection of the modified peptides were also carried out to ensure correct assignments/localizations of the citrullination sites (detailed MS/MS spectra are presented in Source Data-File 2 spreadsheet).
After in vitro citrullination by PAD as described above, recombinant human pancreatic glucokinase (rhGK; LS-G5486, LSBio) was put on the ice to stop the reaction for 5 min. Then glucokinase activity was measured spectrophotometrically (A340nm) at 37 °C by a glucose 6-phosphate dehydrogenase (G6PDH) coupled assay as described previously. In brief, 1 µg rhGK or PAD-treated rhGK was assayed in a reaction buffer containing 25 mM Hepes (pH7.3), 2 mM MgCl2, 1 mM DTT, 0.5 mM NADP, 2 mM ATP, 0.01%BSA, 20U/ml G6PDH and 25 mM D-( + )-glucose. Relative specific activity of glucokinase was calculated from linear regression of the change in A340nm. To determine the steady-state kinetic properties of both rhGK and PAD-treated rhGK, varying concentrations of D-( + )-glucose (0–50 mM) were used. Vmax and Km were calculated by Michaelis-Menten equation using GraphPad Prism Software.

The subject of data set [2] is INS-1E cells. Put plainly: Insulin secretion assay. The data set is classed as cell-based, rat. As for the experimental part: (§1) For insulin secretion assay, the INS-1E cells, a gift from Prof. Wollheim (CMU, Geneva, Switzerland)[53], were seeded on 6 well plate and cultured with recombinant mouse IFNγ (100 units/mL; R&D Systems) and recombinant human IL-1β (5 units/mL; R&D Systems) in the presence or absence of PAD2/PAD4 inhibitor (5 µM YW3-56; Cayman) for 48 hrs. Cells were washed and starved for 1 hr in low-glucose KREBS buffer (138 mM NaCl, 4.7 mM KCl, 1 mM CaCl2, 1.18 mM KH2PO4, 1.18 mM MgSO4, 5 mM NaHCO3, 25 mM Hepes (pH7.4), 0.1% BSA and 2.5 mM glucose). Assay buffer was then replaced with KREBS buffer containing either varying glucose concentration (2.5, 5, 9 and 16.7 mM), 10 mM sodium pyruvate or 30 mM KCl. After another 1 hr incubation, supernatants were collected and assayed for insulin by using Rat High Range Insulin ELISA kit (ALPCP) according to manufacturer’s protocol and analyzed using Microsoft excel Software. All experiments were performed using INS-1E cells between the 61st and 65th passage.

Data set [3] concerns INS-1E cells. Put plainly: Protein citrullination immunoblot (anti-modified citrulline). The data set is classed as cell-based, rat. The following applies: IFNγ 100U/ml plus IL-1β 5U/ml, 5 µM YW3-56, 48 hrs.
Excerpt: Presence of citrullinated protein was detected by using anti-citrulline (Abcam, ab6464) for immunohistochemistry as described elsewhere, by using anti-peptidyl-citrulline, clone F95 (Millipore, MABN328) for flow cytometry and confocal microscopy and by using anti-modified citrulline detection kit, clone C4 (Millipore, 17-347B) for immunoblot according to manufacturer’s protocol. The specificity and sensitivity of the above commercial antibodies for the detection of protein citrullination were described previously[47],[48] and in our recent reports[9],[51],[52].
as §1, with “Assay buffer was then replaced with KREBS buffer containing either varying glucose concentration (2.5, 5, 9 and 16.7 mM), 10 mM sodium pyruvate or 30 mM KCl.” left out, “All experiments were performed using INS-1E cells between the 61st and 65th passage.” left out
A general note: In western blotting, separated proteins are transferred to a membrane and probed.

The test system of a further data set is PAD4. The following applies: pan-PAD inhibitor; no reference printed (compound from Cayman); cited from earlier work. How it is done: Proinflammatory cytokines are known to attenuate glucose stimulated insulin secretion (GSIS), mediated by glucokinase, as studied elsewhere[29]–[31]. We utilized a subclonal cell line from the parenteral INS-1 cells, INS-1E, to examine GSIS and how citrullination may alter the glucose sensing/insulin secreting metabolic pathway. We also utilized YW3-56, a pan-PAD inhibitor (IC50: […] and 1–5 µM for PAD2 and PAD4, respectively), in studies of GSIS in INS-1E cells as a means of blocking protein citrullination. First, we confirmed by immunoblot detection of citrulline that IFNγ+ IL-1β cytoki ...

Setting [4] is: 25 mM glucose, 1 µg protein, replicate 1.
Setting [5] is: 25 mM glucose, 1 µg protein, replicate 2.

`CCCO[C@H]1CC[C@H](N(C(=O)Nc2ncc(SCC(=O)O)s2)C2CCCCC2)CC1` [TTP399]: the “clinical effect in patients with T1D” value in the data set on glucokinase was “lower HbA1C and reduce hypoglycemia without increasing the risk of ketosis”.
Turning to “PAD-treated rhGK: rhGK citrullinated in vitro by rabbit peptidylarginine deiminase (PADI2)”, the “reduction of catalytic activity by citrullination” value in data set [1] (25 mM glucose, 1 µg protein, versus native rhGK) turned out to be 20%. For the same compound, the catalytic activity in data set [1] (setting [4]) was 56.53; in data set [1] (setting [5]) it was 60.82. The Vmax (as a rule, the top rate of the reaction or transport when substrate is in excess) in data set [1] came out at 119.9 ± 7.7 µmol/mg/min. For the same compound, in data set [1], the Km – broadly, the concentration of substrate that gives half-maximal velocity – is 16.2 ± 2.3 mM.
YW3-56: the “citrullination levels or GSIS, inhibitor alone” value in the data set with INS-1E cells [2] (5 µM YW3-56 without cytokines, 48 hrs) was “did not affect”. For the same compound, the “cytokine-mediated suppression of insulin secretion upon pyruvate stimulation” value in the data set with INS-1E cells [2] (10 mM sodium pyruvate, 5 µM YW3-56 with cytokines 48 h) was “able to correct”. Moreover, the “IFNγ + IL-1β suppressed GSIS” value in the data set with INS-1E cells [2] (16.7 mM glucose, YW3-56 cocultured with cytokines for 48 h) is given as “partially correct”. For the same compound, the “insulin secretion to depolarization with KCL” value with INS-1E cells [2] (30 mM KCl, cytokines in the presence or absence of YW3-56) is given as “not affected”. Also, the insulin secretion with INS-1E cells [2] (YW3-56 alone (no cytokine), glucose 2.5 (head prints nM), replicate 1) turned out to be 20.6698; in the data set on INS-1E cells [2] (YW3-56 alone, KCl, replicate 1) it was 216.859; with INS-1E cells [2] (YW3-56 alone, KCl, replicate 2), 173.302; in the data set on INS-1E cells [2] (YW3-56 alone, KCl, replicate 3), 216.475; in the data set on INS-1E cells [2] (YW3-56 alone, glucose 2.5 (head prints nM), replicate 2), 24.1975; in the data set on INS-1E cells [2] (YW3-56 alone, glucose 2.5 (head prints nM), replicate 3), 21.4049. Also, the insulin secretion in the data set on INS-1E cells [2] (YW3-56 alone, glucose 5 (head prints nM), replicate 1) was found to be 75.1459; with INS-1E cells [2] (YW3-56 alone, glucose 5 (head prints nM), replicate 2) it was 84.4819; in the data set with INS-1E cells [2] (YW3-56 alone, glucose 5 (head prints nM), replicate 3), 61.4806; in the data set with INS-1E cells [2] (YW3-56 alone, glucose 16.7 (head prints nM), replicate 1), 227.056; in the data set on INS-1E cells [2] (YW3-56 alone, glucose 16.7 (head prints nM), replicate 2) it was 273.99; with INS-1E cells [2] (YW3-56 alone, glucose 16.7 (head prints nM), replicate 3) it was 236.558. Also, the insulin secretion came to 292.452 in the data set on INS-1E cells [2] (YW3-56 alone, pyruvate, replicate 1); 273.99 in the data set on INS-1E cells [2] (YW3-56 alone, pyruvate, replicate 2); 273.99 in the data set with INS-1E cells [2] (YW3-56 alone, pyruvate, replicate 3); 42.5356 with INS-1E cells [2] (cytokine (IFNγ + IL-1β) + YW3-56 5 µM 48 hrs, 1 hr glucose 2.5 (head prints nM), replicate 1); 91.8746 in the data set on INS-1E cells [2] (cytokine + YW3-56 48 hrs, KCl, replicate 1); 82.0356 in the data set with INS-1E cells [2] (cytokine + YW3-56 48 hrs, KCl, replicate 2). The insulin secretion in the data set with INS-1E cells [2] (cytokine + YW3-56 48 hrs, KCl, replicate 3) turned out to be 59.5376; with INS-1E cells [2] (cytokine + YW3-56 48 hrs, glucose 2.5 (head prints nM), replicate 2), 26.9388; with INS-1E cells [2] (cytokine + YW3-56 48 hrs, glucose 2.5 (head prints nM), replicate 3), 26.5034; in the data set on INS-1E cells [2] (cytokine + YW3-56 48 hrs, glucose 5 (head prints nM), replicate 1), 38.7513; with INS-1E cells [2] (cytokine + YW3-56 48 hrs, glucose 5 (head prints nM), replicate 2), 47.2935; in the data set on INS-1E cells [2] (cytokine + YW3-56 48 hrs, glucose 5 (head prints nM), replicate 3), 37.2188. Further, the insulin secretion in the data set on INS-1E cells [2] (cytokine + YW3-56 48 hrs, glucose 16.7 (head prints nM), replicate 1) came to 95.9987; in the data set on INS-1E cells [2] (cytokine + YW3-56 48 hrs, glucose 16.7 (head prints nM), replicate 2) it was 101.342; in the data set with INS-1E cells [2] (cytokine + YW3-56 48 hrs, glucose 16.7 (head prints nM), replicate 3), 93.7876; in the data set on INS-1E cells [2] (cytokine + YW3-56 48 hrs, pyruvate, replicate 1), 78.6578; with INS-1E cells [2] (cytokine + YW3-56 48 hrs, pyruvate, replicate 2), 90.7306; in the data set with INS-1E cells [2] (cytokine + YW3-56 48 hrs, pyruvate, replicate 3), 140.964. Moreover, the “IFNγ+ IL-1β cytokine-induced citrullination levels” value in the data set on INS-1E cells [3] is “reduced”. Besides, the half-maximal inhibitory concentration (IC50) (commonly the point on the concentration scale where inhibition reaches its midpoint) in the data set on PAD4 was 1000 to 5000 nM.
Turning to “rhGK: Recombinant human pancreatic glucokinase”, the catalytic activity in data set [1] (setting [4]) came to 72.34. Besides, in data set [1] (setting [5]), the catalytic activity is 76.63. Moreover, in data set [1], the maximal velocity (Vmax) was 115.1 ± 10.5 µmol/mg/min and the Km amounted to 8.48 ± 2.1 mM.
